Assay results from PubChem BioAssay AID1745844 (Carcinogenic Potency Database (CPDB), 2022).
The source made the active and inactive calls. The rule behind the calls is not given here.

Test system: rodent lifetime carcinogenesis bioassay, tumor incidence TD50
Experiment: chronic cancer bioassays in animals – CPDB, compiled studies (AID 1745844)

## COC(C(=O)O)c1ccccc1 (centres undefined)
mouse, strain B6AKF1, females, oral dosing, site: any site (literature study), lesion: several types, types named in the paper, dosed 76 weeks, study length 76 weeks
  TD50: 227 mg/kg/day (inactive)
mouse, strain B6AKF1, females, oral dosing, site: liver, lesion: hepatoma, dosed 76 weeks, study length 76 weeks
  carcinogen call: negative (inactive)
mouse, strain B6AKF1, females, oral dosing, site: lung, lesion: adenoma, dosed 76 weeks, study length 76 weeks
  TD50: 236 mg/kg/day (inactive)
mouse, strain B6AKF1, males, oral dosing, site: any site (literature study), lesion: several types, types named in the paper, dosed 76 weeks, study length 76 weeks
  TD50: 139 mg/kg/day (inactive)
mouse, strain B6AKF1, males, oral dosing, site: liver, lesion: hepatoma, dosed 76 weeks, study length 76 weeks
  TD50: 3620 mg/kg/day (inactive)
mouse, strain B6AKF1, males, oral dosing, site: lung, lesion: adenoma, dosed 76 weeks, study length 76 weeks
  TD50: 157 mg/kg/day (inactive)
mouse, strain B6C3F1, females, oral dosing, site: any site (literature study), lesion: several types, types named in the paper, dosed 76 weeks, study length 76 weeks
  TD50: 157 mg/kg/day (inactive)
mouse, strain B6C3F1, females, oral dosing, site: liver, lesion: hepatoma, dosed 76 weeks, study length 76 weeks
  carcinogen call: negative (inactive)
mouse, strain B6C3F1, females, oral dosing, site: lung, lesion: adenoma, dosed 76 weeks, study length 76 weeks
  TD50: 244 mg/kg/day (inactive)
mouse, strain B6C3F1, males, oral dosing, site: all sites, lesion: reticulum-cell sarcoma, dosed 76 weeks, study length 76 weeks
  TD50: 82.1 mg/kg/day (inactive)
mouse, strain B6C3F1, males, oral dosing, site: any site (literature study), lesion: several types, types named in the paper, dosed 76 weeks, study length 76 weeks
  TD50: 54.2 mg/kg/day (inactive)
mouse, strain B6C3F1, males, oral dosing, site: liver, lesion: hepatoma, dosed 76 weeks, study length 76 weeks
  TD50: 227 mg/kg/day (inactive)
mouse, strain B6C3F1, males, oral dosing, site: lung, lesion: several types, types named in the paper, dosed 76 weeks, study length 76 weeks
  carcinogen call: negative (inactive)

## CC(=O)O[C@]1(C(C)=O)CC[C@H]2[C@@H]3C=C(Cl)C4=CC(=O)CC[C@]4(C)[C@H]3CC[C@@]21C
mouse, strain C3H (MTV+), females, in feed, site: mammary tissue, wider than the gland, lesion: one or several types, types not named, dosed 104 weeks, study length 104 weeks
  TD50: 3.77 mg/kg/day

## CC(=O)OC1CC(C)OC(C)O1 (centres undefined)
mouse, strain B6C3F1, females, by gavage, site: any site (literature study), lesion: several types, types named in the paper, dosed 103 weeks, study length 104 weeks
  TD50: 3380 mg/kg/day (inactive)
mouse, strain B6C3F1, females, by gavage, site: lung, lesion: alveolar/bronchiolar adenoma + alveolar/bronchiolar carcinoma, dosed 103 weeks, study length 104 weeks
  TD50: 10400 mg/kg/day
mouse, strain B6C3F1, males, by gavage, site: any site (literature study), lesion: several types, types named in the paper, dosed 103 weeks, study length 104 weeks
  TD50: 1820 mg/kg/day
mouse, strain B6C3F1, males, by gavage, site: forestomach, lesion: squamous-cell carcinoma + squamous-cell papilloma, dosed 103 weeks, study length 104 weeks
  TD50: 1440 mg/kg/day
mouse, strain B6C3F1, males, by gavage, site: liver, lesion: hepatocellular adenoma + hepatocellular carcinoma + neoplastic nodule, dosed 103 weeks, study length 104 weeks
  TD50: 1180 mg/kg/day
mouse, strain B6C3F1, males, by gavage, site: lung, lesion: alveolar/bronchiolar adenoma + alveolar/bronchiolar carcinoma, dosed 103 weeks, study length 104 weeks
  TD50: 1450 mg/kg/day
rat, strain Fischer 344, females, by gavage, site: any site (literature study), lesion: several types, types named in the paper, dosed 103 weeks, study length 104 weeks
  carcinogen call: negative (inactive)
rat, strain Fischer 344, females, by gavage, site: liver, lesion: hepatocellular adenoma + hepatocellular carcinoma + neoplastic nodule, dosed 103 weeks, study length 104 weeks
  TD50: 2430 mg/kg/day
rat, strain Fischer 344, males, by gavage, site: any site (literature study), lesion: several types, types named in the paper, dosed 103 weeks, study length 104 weeks
  carcinogen call: negative (inactive)
rat, strain Wistar, males, in drinking water, site: all sites, lesion: lymphosarcoma, dosed 87 weeks, study length 100 weeks
  TD50: 29800 mg/kg/day
rat, strain Wistar, males, in drinking water, site: all sites, lesion: myelogenous leukemia, dosed 87 weeks, study length 100 weeks
  TD50: 6770 mg/kg/day
rat, strain Wistar, males, in drinking water, site: any site (literature study), lesion: several types, types named in the paper, dosed 87 weeks, study length 100 weeks
  TD50: 419 mg/kg/day
rat, strain Wistar, males, in drinking water, site: kidney, lesion: papillary transitional-cell carcinoma, dosed 87 weeks, study length 100 weeks
  TD50: 6770 mg/kg/day
rat, strain Wistar, males, in drinking water, site: liver, lesion: hepatoma, dosed 87 weeks, study length 100 weeks
  TD50: 716 mg/kg/day
rat, strain Wistar, males, in drinking water, site: skin, lesion: epidermoid carcinoma, dosed 87 weeks, study length 100 weeks
  TD50: 6770 mg/kg/day
rat, strain Wistar, males, in drinking water, site: subcutaneous tissue, lesion: fibrosarcoma, dosed 87 weeks, study length 100 weeks
  TD50: 6770 mg/kg/day

## CCOP(=O)(CC1CO1)OCC (centres undefined)
mouse, strain Ha/ICR, females, i.p., site: lung, lesion: papillary tumor, dosed 64 weeks, study length 64 weeks
  TD50: 12.4 mg/kg/day

## CC(=O)Oc1c(C)c(C)c2c(c1C)CCC(C)(CCCC(C)CCCC(C)CCCC(C)C)O2 (centres undefined)
rat, strain Charles River CD (Sprague-Dawley), females, in feed, site: any site (literature study), lesion: malignant tumor, dosed 104 weeks, study length 104 weeks
  carcinogen call: negative (inactive)
rat, strain Charles River CD (Sprague-Dawley), females, in feed, site: any site (literature study), lesion: several types, types named in the paper, dosed 104 weeks, study length 104 weeks
  carcinogen call: negative (inactive)
rat, strain Charles River CD (Sprague-Dawley), females, in feed, site: liver, lesion: one or several types, types not named, dosed 52 weeks, study length 52 weeks
  carcinogen call: negative (inactive)
rat, strain Charles River CD (Sprague-Dawley), females, in feed, site: liver, lesion: one or several types, types not named, dosed 104 weeks, study length 104 weeks
  carcinogen call: negative (inactive)
rat, strain Charles River CD (Sprague-Dawley), males, in feed, site: any site (literature study), lesion: malignant tumor, dosed 104 weeks, study length 104 weeks
  TD50: 67800 mg/kg/day (inactive)
rat, strain Charles River CD (Sprague-Dawley), males, in feed, site: any site (literature study), lesion: several types, types named in the paper, dosed 104 weeks, study length 104 weeks
  TD50: 67800 mg/kg/day (inactive)
rat, strain Charles River CD (Sprague-Dawley), males, in feed, site: liver, lesion: one or several types, types not named, dosed 52 weeks, study length 52 weeks
  carcinogen call: negative (inactive)
rat, strain Charles River CD (Sprague-Dawley), males, in feed, site: liver, lesion: one or several types, types not named, dosed 104 weeks, study length 104 weeks
  carcinogen call: negative (inactive)

## CCCCNC(N)=O
mouse, strain C57BL/6, females, in feed, site: any site (literature study), lesion: several types, types named in the paper, dosed 52 weeks, study length 69 weeks
  carcinogen call: negative (inactive)
mouse, strain C57BL/6, females, in feed, site: liver, lesion: hepatocellular carcinoma, dosed 52 weeks, study length 69 weeks
  carcinogen call: negative (inactive)
mouse, strain C57BL/6, females, in feed, site: lung, lesion: adenoma, dosed 52 weeks, study length 69 weeks
  carcinogen call: negative (inactive)
mouse, strain C57BL/6, males, in feed, site: any site (literature study), lesion: several types, types named in the paper, dosed 52 weeks, study length 69 weeks
  TD50: 699 mg/kg/day (inactive)
mouse, strain C57BL/6, males, in feed, site: liver, lesion: hepatocellular carcinoma, dosed 52 weeks, study length 69 weeks
  carcinogen call: negative (inactive)
mouse, strain C57BL/6, males, in feed, site: lung, lesion: adenoma, dosed 52 weeks, study length 69 weeks
  TD50: 5510 mg/kg/day (inactive)
rat, strain Fischer 344, females, in feed, site: any site (literature study), lesion: several types, types named in the paper, dosed 52 weeks, study length 69 weeks
  carcinogen call: negative (inactive)
rat, strain Fischer 344, females, in feed, site: liver, lesion: one or several types, types not named, dosed 52 weeks, study length 69 weeks
  carcinogen call: negative (inactive)
rat, strain Fischer 344, males, in feed, site: any site (literature study), lesion: several types, types named in the paper, dosed 52 weeks, study length 69 weeks
  carcinogen call: negative (inactive)
rat, strain Fischer 344, males, in feed, site: liver, lesion: one or several types, types not named, dosed 52 weeks, study length 69 weeks
  carcinogen call: negative (inactive)

## C=CCNNCC=C
mouse, strain Swiss albino, females, in drinking water, site: liver, lesion: angioma, dosed 83 weeks, study length 83 weeks
  carcinogen call: negative (inactive)
mouse, strain Swiss albino, females, in drinking water, site: liver, lesion: angiosarcoma, dosed 83 weeks, study length 83 weeks
  carcinogen call: negative (inactive)
mouse, strain Swiss albino, females, in drinking water, site: liver, lesion: hepatoma, dosed 83 weeks, study length 83 weeks
  TD50: 409 mg/kg/day (inactive)
mouse, strain Swiss albino, females, in drinking water, site: lung, lesion: adenocarcinoma, dosed 83 weeks, study length 83 weeks
  TD50: 78.3 mg/kg/day
mouse, strain Swiss albino, females, in drinking water, site: lung, lesion: adenoma, dosed 83 weeks, study length 83 weeks
  TD50: 47.9 mg/kg/day
mouse, strain Swiss albino, females, in drinking water, site: lung, lesion: several types, types named in the paper, dosed 83 weeks, study length 83 weeks
  TD50: 33.8 mg/kg/day
mouse, strain Swiss albino, males, in drinking water, site: liver, lesion: angioma, dosed 82 weeks, study length 82 weeks
  carcinogen call: negative (inactive)
mouse, strain Swiss albino, males, in drinking water, site: lung, lesion: adenocarcinoma, dosed 82 weeks, study length 82 weeks
  TD50: 60 mg/kg/day
mouse, strain Swiss albino, males, in drinking water, site: lung, lesion: adenoma, dosed 82 weeks, study length 82 weeks
  TD50: 35.4 mg/kg/day
mouse, strain Swiss albino, males, in drinking water, site: lung, lesion: several types, types named in the paper, dosed 82 weeks, study length 82 weeks
  TD50: 33.9 mg/kg/day
